Among the data in BindingDB's records for doi:10.1016/j.ejmech.2015.08.002 (Ochanomizu University, 2015) are IC50 values, retold here.

The test has as its target Androgen receptor (Mus musculus) (UniProt P19091). As to the kind of experiment: Antagonist activity at wild type AR expressed in mouse SC-3 cells assessed as inhibition of 1 nM DHT-induced cell proliferation after 3 days by WST-8 assay.

Each structure is given as a SMILES string.

Chain of Androgen receptor (Mus musculus) (P19091 whole entry, looked up): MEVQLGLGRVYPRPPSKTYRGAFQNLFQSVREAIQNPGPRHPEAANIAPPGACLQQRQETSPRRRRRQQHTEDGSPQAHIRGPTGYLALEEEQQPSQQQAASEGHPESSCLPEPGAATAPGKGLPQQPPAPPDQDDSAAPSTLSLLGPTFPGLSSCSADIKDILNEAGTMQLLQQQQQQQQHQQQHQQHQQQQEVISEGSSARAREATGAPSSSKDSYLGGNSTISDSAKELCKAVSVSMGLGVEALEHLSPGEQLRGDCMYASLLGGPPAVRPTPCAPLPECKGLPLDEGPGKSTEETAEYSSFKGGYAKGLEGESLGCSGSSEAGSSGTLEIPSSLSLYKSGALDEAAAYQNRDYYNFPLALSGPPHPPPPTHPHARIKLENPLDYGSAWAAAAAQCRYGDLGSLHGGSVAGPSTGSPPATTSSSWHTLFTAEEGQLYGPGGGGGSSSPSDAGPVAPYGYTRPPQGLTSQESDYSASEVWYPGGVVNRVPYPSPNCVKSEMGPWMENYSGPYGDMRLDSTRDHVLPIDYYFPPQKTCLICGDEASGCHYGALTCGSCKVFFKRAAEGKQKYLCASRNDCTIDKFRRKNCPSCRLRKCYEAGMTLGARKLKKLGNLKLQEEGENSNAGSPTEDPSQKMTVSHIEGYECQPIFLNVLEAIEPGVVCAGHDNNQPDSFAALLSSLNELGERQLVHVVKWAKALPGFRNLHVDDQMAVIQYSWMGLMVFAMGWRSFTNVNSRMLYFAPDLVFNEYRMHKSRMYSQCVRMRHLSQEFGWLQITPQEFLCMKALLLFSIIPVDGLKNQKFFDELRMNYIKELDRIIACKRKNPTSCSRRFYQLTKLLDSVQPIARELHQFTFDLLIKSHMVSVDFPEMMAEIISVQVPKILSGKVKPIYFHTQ

On to `O=c1[nH]nc(Cc2ccccc2)c2ccccc12`, for which the half-maximal inhibitory concentration (IC50) was determined as 5370 nM. Consider `O=C(Nc1ccccc1Cc1n[nH]c(=O)c2ccccc12)C(F)(F)F`, for which the IC50 was 1010 nM.

As to `O=c1[nH]nc(Cc2ccccc2[N+](=O)[O-])c2ccccc12`, the IC50 worked out at 530 nM. Regarding `CCN(CC)c1ccccc1Cc1n[nH]c(=O)c2ccccc12`, the IC50 came to 1660 nM. In the case of `O=c1[nH]nc(Cc2c(F)cccc2F)c2ccccc12`, the IC50 is 3760 nM.

For the molecule `CNc1ccccc1Cc1n[nH]c(=O)c2ccccc12`, the 50% inhibitory concentration (IC50) worked out at 9020 nM. As for `O=c1[nH]nc(Cc2c(Cl)ccc(Cl)c2Cl)c2ccccc12`, the half-inhibitory concentration (IC50) is 920 nM. In the case of `CN(C)c1ccccc1Cc1n[nH]c(=O)c2ccccc12`, the half-maximal inhibitory concentration (IC50) came to 1950 nM. Turning to `O=c1[nH]nc(Cc2ccccc2F)c2ccccc12`, the IC50 came out at 10500 nM.

In the case of `CCNc1ccccc1Cc1n[nH]c(=O)c2ccccc12`, the IC50 stood at 3710 nM.

Turning to `O=c1[nH]nc(Cc2c(Cl)cccc2Cl)c2ccccc12`, the IC50 came to 180 nM.

On to `O=c1[nH]nc(Cc2ccccc2C(F)(F)F)c2ccccc12`, for which the IC50 was found to be 3670 nM. For `Nc1ccccc1Cc1n[nH]c(=O)c2ccccc12`, the IC50 amounted to 220 nM. For the molecule `COc1ccccc1Cc1n[nH]c(=O)c2ccccc12`, the IC50 came to 9590 nM.

For the molecule `Cc1ccccc1Cc1n[nH]c(=O)c2ccccc12`, the 50% inhibitory concentration (IC50) was determined as 9540 nM.

On to `O=c1[nH]nc(Cc2ccccc2Cl)c2ccccc12` [4-(2-chlorobenzyl)phthalazin-1(2H)-one], for which the IC50 was 1260 nM.

`Cc1cccc(C)c1Cc1n[nH]c(=O)c2ccccc12`: the 50% inhibitory concentration (IC50) was 1380 nM.
